Three molecules from patent US20250215105A1, “ANTI-CD39 ANTIBODY” (BrightPath Biotherapeutics Co., Ltd., priority 2022, published 2025) can be followed below.

Data set [1] has as its system human multiple myeloma-derived cell line MOLP-8. To be noted: day 24, last day of the study.
Procedure: The human multiple myeloma-derived cell line MOLP-8 (DMSZ, ACC569) was subcutaneously transplanted (at 5×10^6 cells/mouse) into the right abdomen of each SCID mouse (C.B-17/Icr-scid/scidJcl, female, 7-week-old). On day 10 after transplantation, the mice were divided into groups based on tumor volume. Each antibody was administered in the doses listed in Table 3 twice a week for a total of seven doses starting on the day of grouping. Doxorubicin was administered twice a week for a total of 5 doses, starting 7 days after the grouping date. The tumor diameter and body weight were measured on day 24 after grouping. The tumor weight (n=5) data were analyzed using GraphPad Prism 9.2.0. One-way ANOVA and Tukey multiple comparisons test were used for statistical analysis. A significant difference was assumed when p**≤0.01.
In data set [2] the test system is T cells in healthy human PBMCs. Kind of data set: effects on T cells in cultured healthy PBMCs (cell type analysis, Treg removal, cytotoxic T cell induction). It counts as cell-based. To be noted: healthy PBMCs cultured with antibody for 5 days. Here is the method:
Purchased healthy human PBMCs (33000-10, Wako Pure Chemicals) were seeded at 5×10^5 cells/well in a 96 well U-bottom plate and cultured in the presence of 100 IU/mL IL-2 (87-890, NIPRO) and 20 ng/mL IL-7 (200-07, PeproTech) for 5 or 6 days to induce Tregs. The medium was washed out and the cells were cultured in the presence of CMV peptide A02 (TS-0010-1c, MBL), 10 IU/mL IL-2, and 20 ng/mL IL-7 for 11 days to induce antigen-specific cytotoxic T cells. The medium used was RPMI-1640 (189-0202, Wako Pure Chemicals) supplemented with 10% Human Serum AB (100-512, H46X00K, Gemini Bio), 1 mM penicillin streptomycin (09367-34, Nacalai Tesque), 1 mM sodium pyruvate (11360070, Gibco), 10 mM HEPES (17557-9, Nacalai Tesque), 1% GlutaMAX (35050061, Thermo Fisher), and 0.01 mM 2-mercaptoethanol (21438-82, Nacalai Tesque).
FACSVerse (BD) was used for various cell type analyses. Cells were counted using CountBright™ Absolute Counting Beads (C36950, Invitrogen). GraphPad Prism 9.2.0 was used for data analysis.
Substantially the same method as described in the Section 21.1 above was used to check a change in the percentage of various CD39^hi-expressing T cells by each glycan-modified anti-CD39 antibody.

In data set [3] the test system is A375 (malignant melanoma cancer cell line). Kind of data set: cancer cell growth inhibition test with Treg-removed PBMCs. The class given is cell-based, human. To be noted: PBMCs pre-treated with 10 μg/ml antibody for 5 days, co-culture 5 days. The procedure: Purchased healthy human PBMCs (Wako Pure Chemicals, 33000-10M) were seeded at 5×10^5 cells/well in a 96 well U-bottom plate and cultured in the presence of 100 IU/mL IL-2 (NIPRO, 87-890), 20 ng/mL IL-7 (PeproTech, 200-07), and each test antibody at 10 μg/ml for 5 days. Then, 15,000 cells/well of A375 (malignant melanoma cancer cell line) overexpressing CMV antigen and RFP were mixed with 45,000 cells/well of PBMCs prepared after 5 days of culture, and the mixture was co-cultured at 37° C. and 5% CO2 for 5 days. At this time, the medium used was RPMI-1640 (189-0202, Wako Pure Chemicals) supplemented with 10% Human Serum AB (100-512, H46X00K, Gemini Bio), 1 mM penicillin streptomycin (09367-34, Nacalai Tesque), 1 mM sodium pyruvate (11360070, Gibco), 10 mM HEPES (17557-9, Nacalai Tesque), 1% GlutaMAX (35050061, Thermo Fisher), and 0.01 mM 2-mercaptoethanol (21438-82, Nacalai Tesque). The number of A375 cells was then determined by measuring the fluorescence value of RFP while using a Varioskan LUX multimode microplate reader (Thermo Fisher Scientific). GraphPad Prism 9.2.0 was used for data analysis.

For data set [4], the system named is activated Tregs. Briefly: binding to activated Tregs (FACS). On the set-up: species or system human. The note with it: 10 μg/mL. The procedure:
Purchased healthy human PBMCs (Wako Pure Chemicals, 33000-10M) were seeded at 2×10^5 cells/well in a 96 well U-bottom plate and cultured in the presence of 10 IU/mL IL-2 (NIPRO, 87-890) and 20 ng/mL IL-7 (PeproTech, 200-07) for 6 days. After 6 days, all the cells were collected and the Treg population was isolated using a CD4^+CD25^+CD127^dim/− Regulatory T Cell Isolation Kit II, human (Miltenyi, 130-094-775). Isolated Tregs were seeded at 2×10^4 cells/well in ab96 well U-bottom plate and stimulated for 6 days in the presence of 6×10^5 Dynabeads Human T-Activator CD3/CD28 (Gibco, DB11132-D), 10 IU/mL IL-2, and 20 ng/mL IL-7. The medium used was RPMI (Wako Pure Chemicals, 189-02025) supplemented with 10% Human Serum AB (Gemini Bio, 100-512, H46X00K), 1 mM penicillin streptomycin (Nacalai Tesque, 09367-34), 1 mM sodium pyruvate (Gibco, 11360070), 10 mM HEPES (Nacalai Tesque, 17557-94), GlutaMAX (Thermo Fisher, 35050061). 11360070), 10 mM HEPES (Nacalai Tesque, 17557-94), and GlutaMAX (Thermo Fisher, 35050061). After 6 days, Tregs were collected and analyzed for binding of each test antibody by using a FACSVerse. GraphPad Prism 9.2.0 was used for data analysis.

For the molecule `COc1cccc2c1C(=O)c1c(O)c3c(c(O)c1C2=O)C[C@@](O)(C(=O)CO)C[C@@H]3O[C@H]1C[C@H](N)[C@H](O)[C@H](C)O1` [doxorubicin], the heart weight result in data set [1] was “decreased”.

Turning to ipilimumab, the “CD39^hiCD4+FoxP3+ Tregs and effector Tregs (Fr. II)” value in data set [2] is “significant loss of only effector Tregs (Fr. II)”. Further, the “growth of human malignant melanoma A375” value in data set [3] is “no inhibitory effect”. Also, the “ability of binding to activated Tregs” value in data set [4] is recorded as “not strong”.

As to mogamulizumab, the “CD39^hiCD4+FoxP3+ Tregs and effector Tregs (Fr. II)” value in data set [2] is recorded as “significant loss of only effector Tregs (Fr. II)”. Further, the “ability of binding to activated Tregs” value in data set [4] was “not strong”.
